Consider one compound from paper PMC10799935, “Discovery of a peripheral 5HT2A antagonist as a clinical candidate for metabolic dysfunction-associated steatohepatitis” (Nature Communications, 2024).

“And” between values parts separate entries of the source, which are not always exact repeats. Equal entries are not always repeated.

Data set [1] concerns the target 5HT2A (Homo sapiens, UniProt P28223). Briefly: Human 5HT2A inhibition assay (FLIPR calcium 6, 5HT stimulus, stably transfected HEK293 cells). It is filed as cell-based. Also noted: expressed in transfected cells; host or cells: HEK293. Conditions: HEK293, 1 μM; read-out: % Inhibition at 1 μM (SD). The method, then: The derivatives were evaluated at a concentration of 1 μM for their antagonist activity on the 5HT2A receptor (Tables 1–3)[33],[34]. […] The cells were stained with 100 μL of cytosolic calcium dye using the FLIPR calcium 6 assay solution (Molecular devices, #R8190) supplemented with 2.5 mM probenecid (Sigma; P8761) and incubated for 1 h at 37 °C. After 1 h, the designated amount of the compound was treated in each well and incubated for another 1 h at 37 °C. […] Experimental conditions for the 5HT subtypes can be found in the Supporting Information (Supplementary Table 1).

Data set [2] deals with T1, 5HT1A (h) (Homo sapiens, UniProt P08908).
T1 construct: host or cells: BA/F3 cells
T1 sequence (P08908 whole entry): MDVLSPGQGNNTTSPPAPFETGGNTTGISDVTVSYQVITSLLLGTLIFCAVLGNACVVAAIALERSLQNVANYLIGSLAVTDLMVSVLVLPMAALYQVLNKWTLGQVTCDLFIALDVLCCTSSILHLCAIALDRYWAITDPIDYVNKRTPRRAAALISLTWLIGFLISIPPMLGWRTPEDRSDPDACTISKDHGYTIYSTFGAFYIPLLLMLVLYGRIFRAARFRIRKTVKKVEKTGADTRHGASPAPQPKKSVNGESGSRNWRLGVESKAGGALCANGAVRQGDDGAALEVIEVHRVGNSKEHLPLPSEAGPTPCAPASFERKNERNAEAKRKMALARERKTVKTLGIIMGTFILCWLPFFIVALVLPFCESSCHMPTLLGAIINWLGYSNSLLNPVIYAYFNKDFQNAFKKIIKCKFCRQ
Briefly: 5HT subtype antagonism assay (Eurofins Cerep): 5HT1A. It is filed as cell-based. Conditions: concentration not given.

A short description of data set [3]: in vitro. The conditions noted are these: African green monkey.
In data set [4] the target is T2, 5HT1D (Rattus norvegicus, UniProt P28565).
T2 construct: host or cells: CHO cells
T2 sequence (P28565 whole entry): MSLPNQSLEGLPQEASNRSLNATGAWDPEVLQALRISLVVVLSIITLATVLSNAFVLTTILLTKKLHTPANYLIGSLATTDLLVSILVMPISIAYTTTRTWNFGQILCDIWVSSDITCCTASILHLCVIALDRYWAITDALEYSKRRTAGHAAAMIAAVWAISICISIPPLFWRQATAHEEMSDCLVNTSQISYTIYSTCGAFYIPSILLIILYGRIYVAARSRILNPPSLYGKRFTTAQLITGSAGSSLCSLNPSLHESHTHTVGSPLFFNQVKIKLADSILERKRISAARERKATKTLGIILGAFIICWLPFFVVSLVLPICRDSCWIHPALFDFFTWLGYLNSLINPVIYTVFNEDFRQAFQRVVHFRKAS
Briefly: 5HT subtype antagonism assay (Eurofins Cerep): 5HT1D. In kind it is cell-based. Conditions: concentration not given. How it is done: The derivatives were evaluated at a concentration of 1 μM for their antagonist activity on the 5HT2A receptor (Tables 1–3)[33],[34]. Human 5HT2A stably transfected HEK293 cells (a type of cell derived from kidney embryos)[20] were seeded in a 96-well plate (Costar; 3603) at a density of 9 × 10^4 in 100 μL of minimum essential medium (Welgene; LM007-86) containing 10% dialyzed fetal bovine serum (Gibco; 30067–334) and 1% penicillin/streptomycin (Gibco; 15140-122) and kept in a 37 °C incubator for 24 h. The cells were stained with 100 μL of cytosolic calcium dye using the FLIPR calcium 6 assay solution (Molecular devices, #R8190) supplemented with 2.5 mM probenecid (Sigma; P8761) and incubated for 1 h at 37 °C. After 1 h, the designated amount of the compound was treated in each well and incubated for another 1 h at 37 °C. Then, the cells were loaded in a Flexstation 3 microplate reader (Molecular Devices; FlexStaion) and 50 μL of 5 μM 5HT (serotonin hydrochloride, Sigma; H9523) was injected from a source plate (Nunc 96-well polystyrene conical bottom MicroWell Plate, Thermo; 249662) and the fluorescence intensity (Ex/Em-485nm/ 525 nm) was measured. […]
Antagonism assay Source Stimulus Incubation Measured Detection Method […]

Data set [5] deals with TNF-α. Put plainly: CDAHFD mice: TNF-α immunohistochemical staining. The conditions noted are these: for TNF-α immunohistochemical staining (TNF-a area), Average / TNF-α immunohistochemical staining (TNF-a area), individual mouse: CDAHFD mice; for TNF-α immunohistochemical staining (TNF-a area), Average: group average n=5, CDAHFD+Vehicle 9.246, Vehicle 2.978; for TNF-α immunohistochemical staining (TNF-a area), individual mouse: individual animals No. 1-5 (Fig.4g). Also noted: TNF-α immunohistochemical staining (TNF-a area), individual mouse / TNF-α immunohistochemical staining (TNF-a area), Average: unit not given here. In kind it is in vivo, mouse. The text has this:
C57BL/6 J male mice were purchased from the Japan SLC. Inc (Hamamatsu, Japan). Mice (5 weeks old) were fed Teklad Certitied Irradiated Global 18% protein rodent diet purchased from Dooyeol Biotech Co. Ltd (Seoul, South Korea) during the acclimation period. The liver fibrosis/inflammation-induced groups were CDAHFD-fed (A06071302, Research diet). […] All animal experiments complied with the relevant ethical regulations.
Mouse liver tissues were fixed in 4% formalin solution (Sigma–Aldrich, St. Louis, MO, USA) and embedded in paraffin. 4-μm-thick liver sections were deparaffinized in xylene, and rehydrated through descending grades of ethanol. To evaluate liver fibrosis, sections were stained with Sirius red solution and subjected to immunohistochemical staining. Tissue sections, after deparaffinization, underwent a 16-hour incubation in a solution containing 0.1% Direct Red 80 (365548, Sigma-Aldrich) dissolved in Picric acid (P-201, Spectrum Chemical, CA, USA) for Sirius red staining. The sections were briefly immersed in a 0.01 N HCl solution (1129, Ducksan, Republic of Korea) for 2 min. and then rinsed with distilled water for destaining. Subsequently, the sections underwent dehydration through […] grades of ethanol. Immunohistochemical staining was performed using the Polyview Plus HRP-DAB (anti-Rabbit) Kit (ENZ-KIT159-0150, ENZO Life Science, NY, USA) following the manufacturers’ instructions. Deparaffinized sections were boiled in IHC-TekTM Epitope Retrieval solution (IW-1100, IHCWORLD, MD, USA) for 45 min., cooled for 1 h, incubated in a 3% H2O2 solution (69355-0350, JUNSEI, Japan) for 15 min., washed, and then incubated overnight with primary antibodies (α-SMA, ab5694, Abcam, 1:500 dilution; TNF-α, ab6671, Abcam, 1:100 dilution and IL-1β, ab9722, Abcam, 1:100 dilution). Subsequently, the sections were treated with Polyview Plus HRP for 2 h and developed with DAB chromogen/substrate. Stained […] sections were confirmed by light microscopy (Olympus BX53 upright microscope, Tokyo, Japan). The degree of hepatic fibrosis and immunohistochemical staining was quantified by morphometric analysis of stained liver sections using NIH ImageJ software.

Data set [6] addresses 5HT2C (h) (Homo sapiens, UniProt P28335). Put plainly: 5HT subtype antagonism assay (Eurofins Cerep): 5HT2C. In kind it is cell-based.

Chain of 5HT2C (h) (P28335 33-458): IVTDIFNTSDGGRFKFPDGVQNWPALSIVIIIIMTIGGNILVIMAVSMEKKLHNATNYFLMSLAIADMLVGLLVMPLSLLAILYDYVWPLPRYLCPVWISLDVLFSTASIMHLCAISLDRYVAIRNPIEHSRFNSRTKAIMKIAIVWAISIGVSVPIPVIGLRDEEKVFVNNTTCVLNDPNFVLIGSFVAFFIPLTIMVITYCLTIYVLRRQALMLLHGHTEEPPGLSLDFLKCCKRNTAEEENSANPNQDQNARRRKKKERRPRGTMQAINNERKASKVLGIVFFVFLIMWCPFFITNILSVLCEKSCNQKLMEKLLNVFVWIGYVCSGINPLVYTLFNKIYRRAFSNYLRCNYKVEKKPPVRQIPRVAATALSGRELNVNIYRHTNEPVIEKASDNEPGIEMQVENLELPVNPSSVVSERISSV
Chain of 5HT2A (P28223 whole entry): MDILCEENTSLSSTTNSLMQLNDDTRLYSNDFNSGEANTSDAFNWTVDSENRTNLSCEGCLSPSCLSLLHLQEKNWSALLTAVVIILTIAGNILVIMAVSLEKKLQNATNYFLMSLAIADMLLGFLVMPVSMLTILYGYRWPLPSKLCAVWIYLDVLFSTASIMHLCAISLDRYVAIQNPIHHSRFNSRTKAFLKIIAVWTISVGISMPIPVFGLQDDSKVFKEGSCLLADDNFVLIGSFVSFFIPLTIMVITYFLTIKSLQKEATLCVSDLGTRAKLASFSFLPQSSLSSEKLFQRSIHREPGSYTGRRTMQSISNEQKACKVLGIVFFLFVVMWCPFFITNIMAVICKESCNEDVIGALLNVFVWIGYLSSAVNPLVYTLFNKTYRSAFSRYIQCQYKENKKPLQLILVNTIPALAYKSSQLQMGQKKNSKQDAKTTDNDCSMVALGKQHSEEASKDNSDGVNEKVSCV

Regarding `Cc1nc2n(c(=O)c1CCN1CCC(=C3c4ccc(Cl)cc4CCc4cccnc43)CC1)CCCC2O` (centres unmarked) [Compound 11c], the inhibition at 1 µM in data set [1] worked out at 92.56 ± 0.77%. Further, in data set [2], the “Selectivity 1 A: % inhibition” value is listed as 9%. For the same compound, the results for the IC50 in data set [3] and in data set [6] (read-out: Selectivity 2 C: IC50) were over 100000 nM and 170 nM, respectively. For the same compound, the “Selectivity 1D: % inhibition” value in data set [4] was found to be 3%. In addition, the “TNF-α immunohistochemical staining (TNF-a area), Average” value is 4.057 in data set [5] (11c 5 mpk) and 5.049 in data set [5] (11c 10mpk). For the same compound, the “TNF-α immunohistochemical staining (TNF-a area), individual mouse” value in data set [5] (11c 5 mpk) was 3.240 and 5.741 and 5.588 and 3.146 and 2.573; in data set [5] (11c 10mpk), 7.848 and 3.111 and 8.161 and 2.686 and 3.441. Also, the “TNF-α expression (immunohistochemical staining)” value in data set [5] (CDAHFD-fed 11c vs CDAHFD-fed vehicle group) is “significant decrease”. Besides, the “Selectivity 2 C: % inhibition” value in data set [6] (concentration not given) came to 103%.

As a reminder, the inhibition is the change of the read-out against control, counted positive when it falls. The IC50 is the concentration at which inhibition is half-maximal.
